The test system of data set [1] is T. brucei brucei Lister 427. Description: Trypanosome replication assay. The class given is cell-based, Trypanosoma brucei brucei. The settings on record: 48 h, concentration giving 50% inhibition of growth of T brucei brucei Lister 427 cells, 48 h, values ±7%, read-out: Tbb EC50.
The subject of data set [2] is HepG2 cells. The data set can be described thus: HepG2 cell toxicity (MTT) assay. The class given is cell-based. The settings on record: for IC50: Homo sapiens, HepG2, 48 h, MTT, 48 hour incubation, read-out: HepG2 IC50; for CC50: Table 13, read-out: HepG2 TC50.
Data set [3] concerns T. cruzi. The data set can be described thus: T. cruzi growth inhibition. Type of data set: cell-based, Trypanosoma cruzi. The settings on record: Trypanosoma cruzi.
For data set [4], the system named is L. major promastigote. Description: L. major promastigote assay. Type of data set: cell-based.
In data set [5] the test system is L. major amastigote. Description: L. major amastigote assay. The class given is cell-based. The settings on record: Leishmania major.
Data set [6] has as its system P. falciparum D6. The data set can be described thus: P. falciparum D6 assay. The settings on record: Plasmodium falciparum; strain D6. The class given is cell-based.
Data set [7] deals with P. falciparum W2. The data set can be described thus: P. falciparum W2 assay. The class given is cell-based. The settings on record: Plasmodium falciparum; strain W2; read-out: P. falciparum W2 (EC50).
For data set [8], the system named is P. falciparum C235. The data set can be described thus: P. falciparum C235 assay. The class given is cell-based. The settings on record: Plasmodium falciparum; strain C235; read-out: P. falciparum C235 (EC50).
In data set [9] the test system is P. fal. Description: P. fal assay of Table 13 (strain not given). Type of data set: cell-based, P. falciparum.

Read-outs that look alike come from different tables or passages of the source.

As a reminder, the EC50 is the concentration at which the effect is half-maximal. Broadly, the IC50 is the concentration needed to halve the response being measured.

Turning to `Clc1cc(Nc2ncnc3ccc(-c4cccc(N5CCOCC5)c4)cc23)ccc1OCc1ccccc1` [Compound 23m, N-(4-(Benzyloxy)-3-chlorophenyl)-6-(3-morpholinophenyl)-quinazolin-4-amine], the EC50 in data set [1] (Trypanosoma brucei) was 230 nM; in [3], 1300 nM; in data set [4] (Leishmania major) it was 6600 nM; in data set [5] it was > 15000 nM; in [6] it was 790 nM; in [7], 1700 nM. In addition, the EC50 in data set [8] amounted to 720 nM. Moreover, the IC50 in data set [2] was > 20000 nM.

For `c1ccc(COc2ccc(Nc3ncnc4ccc(-c5cccc(N6CCOCC6)c5)cc34)cc2)cc1` [Compound 23n, N-(4-(Benzyloxy)phenyl)-6-(3-morpholinophenyl)-quinazolin-4-amine], the EC50 is 180 nM in data set [1] (Trypanosoma brucei); 2700 nM in [4] (Leishmania major); > 15000 nM in [5]; 20000 nM in data set [6]; 20000 nM in data set [7]; 20000 nM in data set [8]. In addition, in data set [2], the IC50 is > 20000 nM. Also, the inhibition at 10 µM in [3] (read-out: T. cruzi % inh at 10 μM) turned out to be 37%.

Consider `c1ccc(Nc2ncnc3ccc(-c4cccc(N5CCOCC5)c4)cc23)cc1` [Compound 23o, 6-(3-Morpholinophenyl)-N-phenylquinazolin-4-amine], for which the EC50 in data set [1] (Trypanosoma brucei) is 11000 nM; in [3] it was 6720 nM; in data set [4] (Leishmania major) it was 9400 nM; in data set [5], > 15000 nM; in [6] it was 3100 nM; in [7] it was 3300 nM. Also, the EC50 in data set [8] was 4600 nM. Moreover, the IC50 in data set [2] turned out to be 7020 nM.

As for `Fc1cccc(COc2ccc(Nc3ccnc4cc(-c5cccc(N6CCOCC6)c5)ccc34)cc2Cl)c1` [NEU-942, N-(3-Chloro-4-((3-fluorobenzyl)oxy)phenyl)-7-(3-morpholinophenyl)quinolin-4-amine], the EC50 in data set [1] (Trypanosoma brucei) was 1200 nM; in data set [3], 2700 nM; in data set [4] (Leishmania major), 1400 nM; in data set [5], > 3000 nM; in data set [9] (Plasmodium falciparum), 61 nM. In data set [2], the CC50 was > 5000 nM.

In the case of `CN1CCCN(S(=O)(=O)c2ccc(-c3ccc4c(Nc5ccc(OCc6cccc(F)c6)c(Cl)c5)ccnc4c3)cc2)CC1` [NEU-943, N-(3-Chloro-4-((3-fluorobenzyl)oxy)phenyl)-7-(4-((4-methyl-1,4-diazepan-1-yl)sulfonyl)phenyl)quinolin-4-amine], the EC50 in data set [1] (Trypanosoma brucei) was 87 nM; in data set [3] it was 730 nM; in [4] (Leishmania major) it was 400 nM; in [5] it was 880 nM; in data set [9] (Plasmodium falciparum), 94 nM. Moreover, the CC50 in data set [2] was determined as 5000 nM.

Turning to `O=S(=O)(c1ccc(-c2ccc3c(Nc4ccc(OCc5ccccc5)c(Cl)c4)ccnc3c2)cc1)N1CCOCC1` [NEU-944, N-(4-(Benzyloxy)-3-chlorophenyl)-7-(4-(morpholinosulfonyl)phenyl)quinolin-4-amine], the EC50 in [1] (Trypanosoma brucei) is 240 nM; in data set [3], 3500 nM; in data set [9] (Plasmodium falciparum) it was 16 nM.

As for `O=S(=O)(c1ccc(-c2ccc3c(Nc4ccc(OCc5ccccc5)c(Cl)c4)nccc3c2)cc1)N1CCOCC1` [NEU-948, N-(4-(Benzyloxy)-3-chlorophenyl)-6-(4-(morpholinosulfonyl)phenyl)isoquinolin-1-amine], the EC50 in [1] (Trypanosoma brucei) is 91 nM; in [3] it was > 50000 nM; in data set [4] (Leishmania major), > 15000 nM; in data set [5], > 3000 nM; in data set [9] (Plasmodium falciparum), 3400 nM. The CC50 in [2] was > 5000 nM.

For `CN1CCN(S(=O)(=O)c2ccc(-c3ccc4ccnc(Nc5ccc(OCc6cccc(F)c6)c(Cl)c5)c4c3)cc2)CC1` [NEU-950, N-(3-Chloro-4-((3-fluorobenzyl)oxy)phenyl)-7-(4-((4-methylpiperazin-1-yl)sulfonyl)phenyl)isoquinolin-1-amine], the EC50 is 1800 nM in data set [1] (Trypanosoma brucei); > 50000 nM in [3]; > 15000 nM in [4] (Leishmania major); > 15000 nM in data set [5]; 40 nM in data set [9] (Plasmodium falciparum).

Regarding `CN1CCN(S(=O)(=O)c2ccc(-c3ccc4c(Nc5ccc(OCc6cccc(F)c6)c(Cl)c5)nccc4c3)cc2)CC1` [NEU-951, N-(3-Chloro-4-((3-fluorobenzyl)oxy)phenyl)-6-(4-((4-methylpiperazin-1-yl)sulfonyl)phenyl)isoquinolin-1-amine], the EC50 is 100 nM in data set [1] (Trypanosoma brucei); > 50000 nM in data set [3]; 2700 nM in data set [4] (Leishmania major); > 15000 nM in [5]; 110 nM in data set [9] (Plasmodium falciparum).

On to `CN1CCCN(S(=O)(=O)c2ccc(-c3ccc4ccnc(Nc5ccc(OCc6cccc(F)c6)c(Cl)c5)c4c3)cc2)CC1` [NEU-962, N-(3-Chloro-4-((3-fluorobenzyl)oxy)phenyl)-7-(4-((4-methyl-1,4-diazepan-1-yl)sulfonyl)phenyl)isoquinolin-1-amine], for which the EC50 was determined as 730 nM in data set [1] (Trypanosoma brucei); 4700 nM in data set [3]; 1300 nM in data set [4] (Leishmania major); 2200 nM in [5]; 86 nM in data set [9] (Plasmodium falciparum).

For `CN1CCCN(S(=O)(=O)c2ccc(-c3ccc4c(Nc5ccc(OCc6cccc(F)c6)c(Cl)c5)nccc4c3)cc2)CC1` [NEU-963, N-(3-Chloro-4-((3-fluorobenzyl)oxy)phenyl)-6-(4-((4-methyl-1,4-diazepan-1-yl)sulfonyl)phenyl)isoquinolin-1-amine], the EC50 was 390 nM in data set [1] (Trypanosoma brucei); 33000 nM in data set [3]; 440 nM in [4] (Leishmania major); 4400 nM in data set [5]; 410 nM in data set [9] (Plasmodium falciparum).

Take `CN1CCN(S(=O)(=O)c2ccc(-c3ccc4ncc(C#N)c(Nc5ccc(OCc6cccc(F)c6)c(Cl)c5)c4c3)cc2)CC1` [NEU-993]: the EC50 in data set [1] was 1100 nM; in [4] it was > 15000 nM; in data set [9], 82 nM.

On to `CN1CCN(S(=O)(=O)c2ccc(-c3ccc4nncc(Nc5ccc(OCc6cccc(F)c6)c(Cl)c5)c4c3)cc2)CC1` [NEU-1003, N-(3-Chloro-4-((3-fluorobenzyl)oxy)phenyl)-6-(4-((4-methylpiperazin-1-yl)sulfonyl)phenyl)cinnolin-4-amine], for which the EC50 in [1] (Trypanosoma brucei) was 980 nM; in data set [3] it was > 50000 nM; in data set [4] (Leishmania major) it was > 15000 nM; in data set [5], 1900 nM; in data set [9] (Plasmodium falciparum), 130 nM.

Turning to `CN1CCN(S(=O)(=O)c2ccc(-c3ccc4c(Nc5ccc(OCc6cccc(F)c6)c(Cl)c5)cnnc4c3)cc2)CC1` [NEU-1016, N-(3-Chloro-4-((3-fluorobenzyl)oxy)phenyl)-7-(4-((4-methylpiperazin-1-yl)sulfonyl)phenyl)cinnolin-4-amine], the EC50 in data set [1] (Trypanosoma brucei) stood at 1000 nM; in data set [3] it was 3100 nM; in data set [4] (Leishmania major), 5700 nM; in data set [5] it was 2000 nM; in [9] (Plasmodium falciparum), 14 nM.

As to `Fc1cccc(COc2ccc(Nc3nncc4ccc(-c5cccc(N6CCOCC6)c5)cc34)cc2Cl)c1` [NEU-1035, N-(3-Chloro-4-((3-fluorobenzyl)oxy)phenyl)-7-(3-morpholinophenyl)phthalazin-1-amine], the EC50 in data set [1] (Trypanosoma brucei) was 290 nM; in [3] it was > 50000 nM; in [4] (Leishmania major), > 15000 nM; in [5], 1700 nM; in data set [9] (Plasmodium falciparum) it was 110 nM.

Take `Fc1cccc(COc2ccc(Nc3nncc4cc(-c5cccc(N6CCOCC6)c5)ccc34)cc2Cl)c1` [NEU-1037, N-(3-Chloro-4-((3-fluorobenzyl)oxy)phenyl)-6-(3-morpholinophenyl)phthalazin-1-amine]: the EC50 in [1] (Trypanosoma brucei) is 1400 nM; in data set [3] it was > 50000 nM; in data set [4] (Leishmania major), > 15000 nM; in data set [5] it was 2200 nM; in [9] (Plasmodium falciparum), 240 nM.

The values are drawn from patent publication US20150259331A1, “PROTOZOAN PARASITE GROWTH INHIBITORS” (Northeastern University, priority 2014, published 2015).
